According to patent US20210251963A1, “UREA DERIVATIVES FOR USE IN THE TREATMENT OF SUBJECTS WITH ELEVATED EXPRESSION AND/OR ACTIVITY OF SRPK1” (Scandion Oncology A/S, priority 2018, published 2021):

Tests used:
Assay in all cases: Premier Screen kinase activity screening (33P ATP filter binding)
Assay type in all cases: biochemical
Settings in all cases: 10 μM SCO-101, mean of assay duplicates, read-out: Kinase activity (percentage of DMSO control)
[1] = molecular target: T1, BRSK2 (Homo sapiens, UniProt Q8IWQ3)
T1 construct: MRC in Dundee (screening service)
Source text: (§1) The kinase activity screening was done at MRC in Dundee. The screen was a so-called “Premier Screen” with 140 kinases. More specific information can be found here: http://www.kinase-screen.mrc.ac.uk/services/premier-screen
(§2) The method is based on a radioactive filter binding assay using 33P ATP (Hastie, et al 2006. Nat Protoc. 2006; 1(2):968-71; Bain, et al 2007. Biochem J. 2007 Dec. 15; 408(3):297-315). This method is sensitive, accurate and provides a direct measure of kinase enzyme activity. A concentration of 10 μM SCO-101 was used.
(§3) In the table below, the data is portrayed as the mean percentage activity of assay duplicates and a standard deviation. These percentage activities were calculated in comparison to DMSO controls. 10 μM SCO-101 reduced the activity of SRPK1 to 6% of the DMSO control.

[2] = molecular target: T2, BTK (Homo sapiens, UniProt Q06187)
T2 construct: MRC in Dundee (screening service)
T2 sequence (Q06187 whole entry, species assumed): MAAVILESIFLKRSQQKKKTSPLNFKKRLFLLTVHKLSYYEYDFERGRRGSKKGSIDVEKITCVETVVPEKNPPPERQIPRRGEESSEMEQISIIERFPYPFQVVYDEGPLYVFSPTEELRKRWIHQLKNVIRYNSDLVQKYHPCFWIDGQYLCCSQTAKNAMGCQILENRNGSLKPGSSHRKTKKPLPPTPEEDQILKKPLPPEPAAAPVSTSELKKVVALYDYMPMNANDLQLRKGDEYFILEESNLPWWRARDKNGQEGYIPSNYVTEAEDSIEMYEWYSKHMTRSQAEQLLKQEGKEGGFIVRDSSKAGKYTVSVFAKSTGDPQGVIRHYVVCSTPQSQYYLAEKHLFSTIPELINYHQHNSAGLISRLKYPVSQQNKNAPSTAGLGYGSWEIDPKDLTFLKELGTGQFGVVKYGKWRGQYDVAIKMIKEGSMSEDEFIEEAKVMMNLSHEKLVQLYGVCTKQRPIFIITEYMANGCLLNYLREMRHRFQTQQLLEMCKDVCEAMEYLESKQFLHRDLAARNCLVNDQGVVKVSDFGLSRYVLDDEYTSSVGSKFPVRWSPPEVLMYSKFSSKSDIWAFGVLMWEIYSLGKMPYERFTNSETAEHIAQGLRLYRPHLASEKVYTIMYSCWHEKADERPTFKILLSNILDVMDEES
Source text: as §1, §2, §3

[3] = molecular target: T3, CAMKKb (Homo sapiens, UniProt Q96RR4)
T3 construct: MRC in Dundee (screening service)
T3 sequence (Q96RR4 whole entry, species assumed): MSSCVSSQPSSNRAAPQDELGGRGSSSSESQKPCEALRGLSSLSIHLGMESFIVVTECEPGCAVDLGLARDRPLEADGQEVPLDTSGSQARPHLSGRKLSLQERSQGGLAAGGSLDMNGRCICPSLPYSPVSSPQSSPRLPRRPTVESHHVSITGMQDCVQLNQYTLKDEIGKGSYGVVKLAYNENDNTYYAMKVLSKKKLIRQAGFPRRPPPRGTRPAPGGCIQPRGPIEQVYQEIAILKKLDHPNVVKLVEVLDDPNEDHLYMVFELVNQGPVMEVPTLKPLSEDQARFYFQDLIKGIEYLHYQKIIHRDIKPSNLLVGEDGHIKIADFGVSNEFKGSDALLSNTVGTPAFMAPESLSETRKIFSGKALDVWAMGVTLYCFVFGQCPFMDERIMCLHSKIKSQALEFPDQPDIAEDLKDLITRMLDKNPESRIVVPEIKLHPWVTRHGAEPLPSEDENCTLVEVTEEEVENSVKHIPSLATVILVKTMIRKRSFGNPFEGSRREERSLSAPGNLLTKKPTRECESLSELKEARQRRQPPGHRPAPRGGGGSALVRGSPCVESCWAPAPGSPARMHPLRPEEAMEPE
Source text: as §1, §2, §3

[4] = molecular target: CHK2 (Homo sapiens, UniProt O96017)
Source text: as §1, §2, §3

[5] = molecular target: T4, CLK2 (Homo sapiens, UniProt P49760)
T4 construct: MRC in Dundee (screening service)
Source text: as §1, §2, §3

[6] = molecular target: T5, CSK (Homo sapiens, UniProt P41240)
T5 construct: purchased MRC Dundee, Premier Screen (contract screening service)
Source text: as §1, §2, §3

[7] = molecular target: T6, DDR2 (Homo sapiens, UniProt Q16832)
T6 construct: purchased MRC in Dundee (Premier Screen service)
T6 sequence (Q16832 22-855, species assumed): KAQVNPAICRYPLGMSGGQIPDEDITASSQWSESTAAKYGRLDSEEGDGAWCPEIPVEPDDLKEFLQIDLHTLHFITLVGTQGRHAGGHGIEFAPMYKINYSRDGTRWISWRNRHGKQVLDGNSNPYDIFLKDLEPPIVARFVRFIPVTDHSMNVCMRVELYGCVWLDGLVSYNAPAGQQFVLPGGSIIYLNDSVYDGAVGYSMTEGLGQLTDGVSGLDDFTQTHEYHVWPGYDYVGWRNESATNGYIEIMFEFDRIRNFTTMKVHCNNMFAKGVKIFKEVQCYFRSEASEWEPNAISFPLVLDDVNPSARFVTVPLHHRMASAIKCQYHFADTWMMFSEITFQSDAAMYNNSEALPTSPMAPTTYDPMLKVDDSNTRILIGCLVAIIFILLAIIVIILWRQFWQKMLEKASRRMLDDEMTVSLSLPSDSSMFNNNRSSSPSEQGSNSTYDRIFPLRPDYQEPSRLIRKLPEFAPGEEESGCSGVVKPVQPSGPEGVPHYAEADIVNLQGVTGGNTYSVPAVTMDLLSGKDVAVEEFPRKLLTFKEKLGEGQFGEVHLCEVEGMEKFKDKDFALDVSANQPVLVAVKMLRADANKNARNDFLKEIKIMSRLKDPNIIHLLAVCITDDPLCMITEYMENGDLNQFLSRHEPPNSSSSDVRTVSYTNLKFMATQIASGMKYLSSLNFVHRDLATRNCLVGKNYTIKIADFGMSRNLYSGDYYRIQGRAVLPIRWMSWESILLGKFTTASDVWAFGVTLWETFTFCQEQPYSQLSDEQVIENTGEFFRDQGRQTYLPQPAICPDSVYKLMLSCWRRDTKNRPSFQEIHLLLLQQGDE
Source text: as §1, §2, §3

[8] = molecular target: T7, EPH-B1 (Homo sapiens, UniProt P54762)
T7 construct: purchased MRC in Dundee (Premier Screen service)
T7 sequence (P54762 18-984, species assumed): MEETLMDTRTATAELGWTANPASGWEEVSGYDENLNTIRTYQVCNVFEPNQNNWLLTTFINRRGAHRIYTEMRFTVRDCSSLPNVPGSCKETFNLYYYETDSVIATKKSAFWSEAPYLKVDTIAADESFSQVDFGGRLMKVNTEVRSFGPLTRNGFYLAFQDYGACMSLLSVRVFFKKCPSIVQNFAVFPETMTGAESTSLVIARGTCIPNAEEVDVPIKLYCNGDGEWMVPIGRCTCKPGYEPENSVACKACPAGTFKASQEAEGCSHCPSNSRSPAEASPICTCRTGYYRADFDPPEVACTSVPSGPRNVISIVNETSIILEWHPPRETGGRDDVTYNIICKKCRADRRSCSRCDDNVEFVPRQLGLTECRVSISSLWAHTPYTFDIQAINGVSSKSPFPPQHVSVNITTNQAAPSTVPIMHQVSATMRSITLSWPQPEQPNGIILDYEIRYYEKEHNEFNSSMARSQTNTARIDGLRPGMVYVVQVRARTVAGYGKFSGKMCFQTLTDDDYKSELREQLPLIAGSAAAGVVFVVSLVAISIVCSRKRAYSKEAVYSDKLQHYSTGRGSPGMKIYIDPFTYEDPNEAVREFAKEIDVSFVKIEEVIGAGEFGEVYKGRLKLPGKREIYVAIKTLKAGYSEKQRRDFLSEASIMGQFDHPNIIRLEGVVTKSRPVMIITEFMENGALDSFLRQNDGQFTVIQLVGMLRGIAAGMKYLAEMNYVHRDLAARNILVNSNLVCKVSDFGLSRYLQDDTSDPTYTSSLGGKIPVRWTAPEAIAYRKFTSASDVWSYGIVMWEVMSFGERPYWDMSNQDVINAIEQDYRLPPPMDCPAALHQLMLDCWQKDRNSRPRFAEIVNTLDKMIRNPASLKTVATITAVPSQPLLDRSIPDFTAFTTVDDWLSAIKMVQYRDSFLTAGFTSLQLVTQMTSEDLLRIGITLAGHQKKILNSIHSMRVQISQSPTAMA
Source text: as §1, §2, §3

[9] = molecular target: T8, ERK1 (Homo sapiens, UniProt P27361)
T8 construct: purchased MRC in Dundee (Premier Screen service)
Source text: as §1, §2, §3

[10] = molecular target: T9, ERK8 (Homo sapiens, UniProt Q8TD08)
T9 construct: MRC in Dundee (screening service)
Source text: as §1, §2, §3

[11] = molecular target: T10, HIPK2 (Homo sapiens, UniProt Q9H2X6)
T10 construct: purchased MRC in Dundee (Premier Screen service)
Source text: as §1, §2, §3

[12] = molecular target: HIPK3 (Homo sapiens, UniProt Q9H422)
Source text: as §1, §2, §3

[13] = molecular target: T11, IKKe (Homo sapiens, UniProt Q14164)
T11 construct: purchased MRC in Dundee (Premier Screen service)
Source text: as §1, §2, §3

[14] = molecular target: IRAK4 (Homo sapiens, UniProt Q9NWZ3)
Source text: as §1, §2, §3

[15] = molecular target: T12, MAPKAP-K2 (Homo sapiens, UniProt P49137)
T12 construct: MRC Dundee (screening service)
T12 sequence (P49137 whole entry, species assumed): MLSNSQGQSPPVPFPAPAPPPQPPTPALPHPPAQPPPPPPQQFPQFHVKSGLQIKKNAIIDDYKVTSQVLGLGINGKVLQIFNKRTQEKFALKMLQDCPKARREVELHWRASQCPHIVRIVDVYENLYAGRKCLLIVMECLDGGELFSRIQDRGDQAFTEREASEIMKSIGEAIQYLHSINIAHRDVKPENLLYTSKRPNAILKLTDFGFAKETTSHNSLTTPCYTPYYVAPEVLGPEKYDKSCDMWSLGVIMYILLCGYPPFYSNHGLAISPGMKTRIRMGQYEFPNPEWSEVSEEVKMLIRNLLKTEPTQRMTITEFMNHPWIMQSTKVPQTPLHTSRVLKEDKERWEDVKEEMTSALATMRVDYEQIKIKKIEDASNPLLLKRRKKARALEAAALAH
Source text: as §1, §2, §3

[16] = molecular target: T13, MARK2 (Homo sapiens, UniProt Q7KZI7)
T13 construct: MRC Dundee (screening service)
Source text: as §1, §2, §3

[17] = molecular target: T14, MKK2 (Homo sapiens, UniProt P36507)
T14 construct: MRC in Dundee (screening service)
T14 sequence (P36507 whole entry, species assumed): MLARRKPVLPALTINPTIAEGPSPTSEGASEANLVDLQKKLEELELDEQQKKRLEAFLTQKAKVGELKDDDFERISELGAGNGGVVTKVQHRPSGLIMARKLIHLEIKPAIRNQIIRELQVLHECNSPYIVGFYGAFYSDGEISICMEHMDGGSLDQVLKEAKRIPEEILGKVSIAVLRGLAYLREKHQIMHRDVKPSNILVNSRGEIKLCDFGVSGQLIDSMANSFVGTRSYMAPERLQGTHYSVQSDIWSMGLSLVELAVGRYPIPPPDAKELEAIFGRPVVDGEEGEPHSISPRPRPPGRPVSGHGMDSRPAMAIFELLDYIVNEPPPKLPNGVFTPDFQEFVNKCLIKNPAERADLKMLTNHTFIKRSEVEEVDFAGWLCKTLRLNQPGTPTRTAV
Source text: as §1, §2, §3

[18] = molecular target: T15, MLK3 (Homo sapiens, UniProt Q16584)
T15 construct: purchased MRC Dundee, Premier Screen (contract screening service)
Source text: as §1, §2, §3

[19] = molecular target: T16, MNK1 (Homo sapiens, UniProt Q9BUB5)
T16 construct: MRC in Dundee (screening service)
Source text: as §1, §2, §3

[20] = molecular target: T17, NEK6 (Homo sapiens, UniProt Q9HC98)
T17 construct: MRC in Dundee (screening service)
Source text: as §1, §2, §3

[21] = molecular target: PAK5 (Homo sapiens, UniProt Q9P286)
Source text: as §1, §2, §3

[22] = molecular target: T18, PDK1 (Homo sapiens, UniProt O15530)
T18 construct: purchased MRC Dundee, Premier Screen (contract screening service)
Source text: as §1, §2, §3

[23] = molecular target: T19, PIM3 (Homo sapiens, UniProt Q86V86)
T19 construct: purchased MRC in Dundee (Premier Screen service)
Source text: as §1, §2, §3

[24] = molecular target: T20, PINK (Tribolium castaneum, UniProt D6WMX4)
T20 construct: purchased MRC Dundee, Premier Screen (contract screening service)
Source text: as §1, §2, §3

[25] = molecular target: T21, PKBb (Homo sapiens, UniProt P31751)
T21 construct: MRC in Dundee (screening service)
T21 sequence (P31751 whole entry): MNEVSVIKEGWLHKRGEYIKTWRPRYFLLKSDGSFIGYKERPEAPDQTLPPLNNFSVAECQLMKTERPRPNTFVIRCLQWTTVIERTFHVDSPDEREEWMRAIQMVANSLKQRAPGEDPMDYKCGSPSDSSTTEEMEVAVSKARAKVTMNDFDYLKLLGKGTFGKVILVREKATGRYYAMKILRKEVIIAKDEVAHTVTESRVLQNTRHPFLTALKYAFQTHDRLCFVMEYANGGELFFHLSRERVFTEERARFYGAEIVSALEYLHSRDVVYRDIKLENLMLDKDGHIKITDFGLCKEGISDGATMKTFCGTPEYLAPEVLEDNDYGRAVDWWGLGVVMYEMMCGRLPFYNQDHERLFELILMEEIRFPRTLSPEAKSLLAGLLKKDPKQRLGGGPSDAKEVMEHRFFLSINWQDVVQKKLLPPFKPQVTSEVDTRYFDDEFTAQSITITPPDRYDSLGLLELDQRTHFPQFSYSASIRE
Source text: as §1, §2, §3

[26] = molecular target: PKCa (Homo sapiens, UniProt P17252)
Source text: as §1, §2, §3

[27] = molecular target: T22, PLK1 (Homo sapiens, UniProt P53350)
T22 construct: purchased MRC in Dundee (Premier Screen service)
Source text: as §1, §2, §3

[28] = molecular target: T23, RSK2 (Homo sapiens, UniProt P51812)
T23 construct: purchased MRC in Dundee (Premier Screen service)
Source text: as §1, §2, §3

[29] = molecular target: T24, STK33 (Homo sapiens, UniProt Q9BYT3)
T24 construct: MRC Dundee (screening service)
Source text: as §1, §2, §3

[30] = molecular target: T25, SYK (Homo sapiens, UniProt P43405)
T25 construct: purchased MRC in Dundee (Premier Screen service)
Source text: as §1, §2, §3

[31] = molecular target: TLK1 (Homo sapiens, UniProt Q9UKI8)
Source text: as §1, §2, §3

[32] = molecular target: T26, TTBK1 (Homo sapiens, UniProt Q5TCY1)
T26 construct: MRC in Dundee (screening service)
Source text: as §1, §2, §3

[33] = molecular target: T27, TTBK2 (Homo sapiens, UniProt Q6IQ55)
T27 construct: purchased MRC Dundee, Premier Screen (contract screening service)
Source text: as §1, §2, §3

[34] = molecular target: ULK1 (Homo sapiens, UniProt O75385)
Source text: as §1, §2, §3

[35] = molecular target: T28, ZAP70 (Homo sapiens, UniProt P43403)
T28 construct: MRC Dundee (screening service)
Source text: as §1, §2, §3

[36] = molecular target: T29, p38a MAPK (Homo sapiens, UniProt Q16539)
T29 construct: purchased MRC in Dundee (Premier Screen service)
Source text: as §1, §2, §3

O=C(Nc1cc(C(F)(F)F)cc(C(F)(F)F)c1)Nc1ccc(Br)cc1-c1nnn[nH]1 [SCO-101] was tested, and the remaining activity at 10 µM [1] was 81%, the remaining activity at 10 µM [2] was 78% and the remaining activity at 10 µM [3] was 94%. The remaining activity at 10 µM [4] was 114%, the remaining activity at 10 µM [5] was 86% and the remaining activity at 10 µM [6] was 106%. The remaining activity at 10 µM [7] was 68%, the remaining activity at 10 µM [8] was 124% and the remaining activity at 10 µM [9] was 137%. The remaining activity at 10 µM [10] was 93%, the remaining activity at 10 µM [11] was 139% and the remaining activity at 10 µM [12] was 121%. It also gave a remaining activity at 10 µM [13] of 75%, a remaining activity at 10 µM [14] of 112% and a remaining activity at 10 µM [15] of 100%. For the same compound, the remaining activity at 10 µM [16] was 100%, the remaining activity at 10 µM [17] was 94% and the remaining activity at 10 µM [18] was 110%. It also gave a remaining activity at 10 µM [19] of 91%, a remaining activity at 10 µM [20] of 90% and a remaining activity at 10 µM [21] of 121%. The remaining activity at 10 µM [22] was 108%, the remaining activity at 10 µM [23] was 49% and the remaining activity at 10 µM [24] was 104%. For the same compound, the remaining activity at 10 µM [25] was 84%, the remaining activity at 10 µM [26] was 116% and the remaining activity at 10 µM [27] was 59%. The remaining activity at 10 µM [28] was 64%, the remaining activity at 10 µM [29] was 100% and the remaining activity at 10 µM [30] was 62%. For the same compound, the remaining activity at 10 µM [31] was 122%, the remaining activity at 10 µM [32] was 94% and the remaining activity at 10 µM [33] was 109%. It also gave a remaining activity at 10 µM [34] of 114%, a remaining activity at 10 µM [35] of 99% and a remaining activity at 10 µM [36] of 63%.
